In brackets after ≈: the same amount, converted by molar mass. Like-named read-outs stand apart in the source and are kept apart here.
Tests used:
IL-6 [1] = assay: LPS-induced inflammatory model, IL-6 level by ELISA; format: cell-based, Murine; settings: LPS (500 ng/mL)-induced RAW 264.7, sample at ¼ IC50, ELISA of medium; LPS control 227.50 ± 29.2
Description: (§1) Murine macrophage cells (RAW 264.7), supplied by American Type Culture Collection (ATCC), were grown on Dulbecco′s Modified Eagle Medium (DMEM), accompanied with 10%, […] and 100 μg/mL from bovine serum, penicillin, and streptomycin respectively. After that, cells were incubated in a CO2 atmosphere (5%, 37 °C) then they sub-cultured every 2 days and the cells of the exponential phase were used all over the procedure.
(§2) RAW 264.7 cells (1.8 × 10^5 cells/mL) were seeded for 18 h in a 24-well plate having DMEM medium (1 mL). […] Then, LPS (Sigma-Aldrich Cat No: L2630) (500 ng/mL, LPS control) was added to all treated and untreated wells to induce the inflammatory process. After incubation for 24 h, the media were taken and frozen till analysis. The untreated wells represented the LPS control group.
(§3) TNF- α quantitative assay ELISA kit (Abcam, ab181421 Human TNF alpha Simple Step) and Il-6 quantitative assay ELISA kit (Abcam, Ab178013 Human IL-6 Simple Step) were used to quantify IL-6 and TNF- α levels in the cell culture medium following the manufacturer′s instructions (Afshari et al. [2005]).

MTT cell viability = format: cell-based, Murine; settings: mouse, RAW 264.7 cells
Description: as §1
(§4) In vitro cytotoxicity assay kit MTT-based was purchased from Sigma- Aldrich, MTT cat No: M-5655, MTT solubilization solution: M-8910). RAW 264.7 cells (10,000/well) were plated in a 96-well plate then the test compounds (1–4) and the extract were diluted by a serial dilution technique (1000–4 μg/mL) were introduced and the plate was placed in a CO2 incubator (37 °C for 24 h). The cells were washed by DMEM and incubated with MTT solution (40 μL, 4 h). DMSO (180 μL) was used to solubilize the crystals of formazan and the produced color was measured at λ570 nm. The results were normalized against the control and the cell viability percentage was estimated as follows: %Cell viability=(Absorbance of sample/Absorbance of control)x100.

TNF-α [2] = assay: RT-PCR, TNF-α mRNA expression in LPS-stimulated RAW 264.7 cells; format: cell-based, Murine; settings: LPS-induced RAW 264.7, compared to LPS control
Description: as §2
(§5) RAW 264.7 cells were washed two times and then harvested in PBS (1 mL). Total RNA from the stimulated RAW 264.7 cells was extracted utilizing Qiagen RNA extraction (Qiagen, MD, USA) following the instructions of the procedure. cDNA was synthesized by iScript cDNA synthesis kit (Bio-Rad Laboratories Pty. Ltd, Gladesville, Australia). Rotorgene RT-PCR system (QIAGEN, Germany) was used for PCR amplification using BioRad cyber green PCR MMX (Bio-Rad Laboratories Pty. Ltd, Gladesville, Australia). The primers used for the amplification of IL-6, TNF-α, and β-actin genes are represented in Additional file 1: Table S4.
(§6) The Formula 2^−(ΔΔCt) was used to calculate the relative fold change between samples and control.

[3] = biological target: ACE2/Spike (RBD) protein interaction (Homo sapiens, UniProt Q9BYF1); assay: ACE2: SARS-CoV-2 spike inhibitor screening colorimetric assay; format: binding
Sequence of ACE2/Spike (RBD) protein interaction (Q9BYF1 18-740): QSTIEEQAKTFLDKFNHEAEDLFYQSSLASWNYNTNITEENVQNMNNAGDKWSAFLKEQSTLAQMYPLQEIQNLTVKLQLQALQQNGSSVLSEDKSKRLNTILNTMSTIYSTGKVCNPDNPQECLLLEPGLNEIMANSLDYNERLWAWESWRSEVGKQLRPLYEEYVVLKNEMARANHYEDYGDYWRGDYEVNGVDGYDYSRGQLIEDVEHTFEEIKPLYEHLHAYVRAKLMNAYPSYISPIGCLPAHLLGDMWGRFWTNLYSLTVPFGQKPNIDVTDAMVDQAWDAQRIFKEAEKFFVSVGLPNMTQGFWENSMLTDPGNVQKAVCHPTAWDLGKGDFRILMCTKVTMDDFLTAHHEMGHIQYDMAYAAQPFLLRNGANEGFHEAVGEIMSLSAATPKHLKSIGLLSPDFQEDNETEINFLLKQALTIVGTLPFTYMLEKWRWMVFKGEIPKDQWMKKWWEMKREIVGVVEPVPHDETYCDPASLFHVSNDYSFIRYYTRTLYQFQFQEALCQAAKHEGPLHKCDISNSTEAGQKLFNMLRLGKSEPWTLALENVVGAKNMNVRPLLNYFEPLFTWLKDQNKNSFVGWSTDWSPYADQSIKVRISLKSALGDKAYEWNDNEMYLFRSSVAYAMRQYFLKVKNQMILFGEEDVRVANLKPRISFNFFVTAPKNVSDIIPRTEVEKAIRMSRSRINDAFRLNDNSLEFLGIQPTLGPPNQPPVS

[4] = test system: Candida albicans ATCC 10231; assay: Agar disc diffusion; settings: disc loaded with about 0.01mg; for zone of inhibition at 10 µg/disc: Candida albicans, ATCC10231, C. albicans; for Zone of inhibition: C. albicans
Description: (§8) Staphylococcus aureus ATCC 6538, Escherichia coli ATCC 25922, Candida albicans ATCC 10231and Aspergillus niger NRRL-A326 were supplied from Culture Collection Center. The antimicrobial activity of A. terreus extract and 1–4 was investigated by the agar disc diffusion method (Abdel-Wareth et al. [2019]). Nutrient agar (bacteria and yeast) and PDA (fungi) plates were seeded with 0.1 mL of 10^5–10^6 cells/mL then the filter paper discs (0.5 cm) were loaded with about 0.01mg from the extract and compounds, and put on the inoculated agar or PDA plates surface and stayed for 2–4 h at 4°C to reach maximum diffusion. After that, incubation of the plate at 30°C for 24 and 48 h for bacteria and fungi, respectively, to permit maximum growth then the inhibition zone diameter was measured in millimeters (mm). Experiments were carried out in triplicate.

TNF-α [5] = assay: LPS-induced inflammatory model, TNF-α level by ELISA; format: cell-based, Murine; settings: LPS (500 ng/mL)-induced RAW 264.7, sample at ¼ IC50, ELISA of medium; LPS control 452.5 0 ± 46.1
Description: as §1, §2, §3

[6] = test system: Staphylococcus aureus ATCC 6538; assay: Agar disc diffusion; settings: disc loaded with about 0.01mg; for zone of inhibition at 10 µg/disc: Staphylococcus aureus, ATCC6538, S. aureus; for Zone of inhibition: S. aureus
Description: as §8

[7] = test system: Escherichia coli ATCC 25922; assay: Agar disc diffusion; settings: for zone of inhibition at 10 µg/disc: Escherichia coli, ATCC25922; for Zone of inhibition: E. coli, disc loaded with about 0.01mg
Description: as §8

[8] = test system: Aspergillus niger NRRL-A326; assay: Agar disc diffusion; settings: for zone of inhibition at 10 µg/disc: Aspergillus niger, NRRLA326; for Zone of inhibition: A. niger, disc loaded with about 0.01mg
Description: as §8

C. albicans = assay: MIC and MBC, resazurin microplate dilution; format: cell-based, Candida albicans
Description: (§7) The tested strains were cultivated in 100 mL bottles at 35 °C for 24 h on Mueller Hinton medium (Sigma-Aldrich, Germany). Bacteria and fungi cells (pellet) were collected by centrifugation at 5000 rpm, 4 °C, and under aseptic conditions, then washed with sterile saline till the supernatant became clear. […] Duplicate plates were prepared and incubated (37 °C, 18-24 h). The lowest concentration at which the color is changed is the MIC data, while MBC has been calculated by streaking two concentrations higher than MIC showing no growth ([…] et al. [2007]).

RAW 264.7 cells = assay: MTT cell viability; format: cell-based, Murine; settings: 24 h
Description: as §1, §4

IL-6 [9] = assay: RT-PCR, IL-6 mRNA expression in LPS-stimulated RAW 264.7 cells; format: cell-based, Murine; settings: LPS-induced RAW 264.7, compared to LPS control
Description: as §2, §5, §6

S. aureus = assay: MIC and MBC, resazurin microplate dilution; format: cell-based, Staphylococcus aureus
Description: as §7

[10] = RAW 264.7 macrophage cells, read-out: IC50 mean ± SD (cytotoxic effect)
[11] = RAW 264.7 macrophage cells, value given in µM, read-out: IC50 (cytotoxic effect) (converted)
[12] = read-out: IC50 mean ± SD (cytotoxic effect)
[13] = value given in µM, read-out: IC50 (cytotoxic effect) (converted)

Molecule: CCC/C=C\C/C=C\CCCCC(=O)OCC(COC(=O)CCCC/C=C\C/C=C\CCC)OC(=O)CCCC/C=C\CCCCC [Compound 1, 1,3-di-(6Z,9Z)-trideca-6,9-dienoyl-2-(6Z) dodec-6-enoyl glycerol]
- IL-6, mean ± SD (IL-6 [1]): 51.63 ± 2.79 pg/mL
- IC50 at 24 h (MTT cell viability; [10]): 858 µg/mL
- IC50 at 24 h (MTT cell viability; [11]): 1290 µM
- expression of TNF-α mRNA (TNF-α [2]): most activity
- IC50 ([3]; tested 5–50 µg/mL, triplicates): 16 µM
- IC50 ([3]; value given in µM): 15.8 µM
- zone of inhibition at 10 µg/disc [4]: 0 mm
- TNF-α mean ± SD (TNF-α [5]): 68.220 ± 3.09 pg/mL
- zone of inhibition at 10 µg/disc [6]: 0 mm
- zone of inhibition at 10 µg/disc [7]: 0 mm
- zone of inhibition at 10 µg/disc [8]: 0 mm

Molecule: Neomycin [reference compound]
- Zone of inhibition [4]: 23 mm
- Zone of inhibition [6]: 21 mm
- Zone of inhibition [7]: 8 mm
- Zone of inhibition [8]: 0 mm

Molecule: C[C@@H]1C[C@@H]([C@H](O)CC2CC(=O)NC(=O)C2)C(=O)[C@@H](C)C1 [Cyclohexamide, reference compound]
- Zone of inhibition [4]: 0 mm
- Zone of inhibition [6]: 0 mm
- Zone of inhibition [7]: 0 mm
- Zone of inhibition [8]: 29 mm

Molecule: COC(=O)[C@]1(Cc2ccc(O)c(CC=C(C)C)c2)OC(=O)C(O)=C1c1ccc(O)cc1 [Compound 2, butyrolactone I]
- IL-6, mean ± SD (IL-6 [1]): 37.25 ± 0.87 pg/mL
- MBC (C. albicans; Candida albicans): 250 µg/mL (≈ 589 µM)
- MIC (C. albicans; Candida albicans): 250 µg/mL (≈ 589 µM)
- IC50 mean ± SD (cytotoxic effect) (RAW 264.7 cells): 718.7 ± 40.4 µg/mL (≈ 1690 µM)
- IC50 at 24 h (MTT cell viability; [12]): 718 µg/mL
- IC50 at 24 h (MTT cell viability; [13]): 1690 µM
- IC50 ([3]; tested 5–50 µg/mL, triplicates): 29.4 µM
- IC50 ([3]; value given in µM): 29.5 µM
- expression of IL-6 mRNA (IL-6 [9]): best inhibitory activity
- MBC (S. aureus; Staphylococcus aureus): 250 µg/mL (≈ 589 µM)
- MIC (S. aureus; Staphylococcus aureus): 250 µg/mL (≈ 589 µM)
- Zone of inhibition [4]: 11 mm
- zone of inhibition at 10 µg/disc [4]: 11 to 22 mm
- TNF-α mean ± SD (TNF-α [5]): 87.97 ± 6.7 pg/mL
- Zone of inhibition [6]: 19 mm
- zone of inhibition at 10 µg/disc [6]: 19 to 25 mm
- zone of inhibition at 10 µg/disc [7]: 0 mm
- zone of inhibition at 10 µg/disc [8]: 0 mm

Molecule: CSC(O)(N1C(=O)CNC(=O)C1Cc1c[nH]c2ccccc12)N1C(=O)CC(=O)N2C(=O)c3cc(O)ccc3CC21 (stereo not shown) [Compound 4, asterrine]
- IL-6, mean ± SD (IL-6 [1]): 129.00 ± 1.77 pg/mL
- MIC (C. albicans; C. albicans): 250 µg/mL (≈ 444 µM)
- MBC (C. albicans; Candida albicans, C. albicans, read-out: MBC): 500 µg/mL (≈ 887 µM)
- MIC (C. albicans; Candida albicans, C. albicans, read-out: MIC): 250 µg/mL (≈ 444 µM)
- IC50 at 24 h (MTT cell viability; [10]): 449 ± 25.2 µg/mL
- IC50 at 24 h (MTT cell viability; [11]): 797 µM
- IC50 ([3]; tested 5–50 µg/mL, triplicates): 15.1 µM
- IC50 ([3]; value given in µM): 15.1 µM
- MBC (S. aureus; S. aureus): 250 µg/mL (≈ 444 µM)
- MBC (S. aureus; Staphylococcus aureus, S. aureus, read-out: MBC): 250 µg/mL (≈ 444 µM)
- MIC (S. aureus; Staphylococcus aureus, S. aureus, read-out: MIC): 125 µg/mL (≈ 222 µM)
- Zone of inhibition [4]: 15 mm
- zone of inhibition at 10 µg/disc [4]: 11 to 22 mm
- TNF-α mean ± SD (TNF-α [5]): 268.30 ± 3.43 pg/mL
- Zone of inhibition [6]: 25 mm
- zone of inhibition at 10 µg/disc [6]: 19 to 25 mm
- zone of inhibition at 10 µg/disc [7]: 0 mm
- zone of inhibition at 10 µg/disc [8]: 0 mm

Molecule: COC(=O)[C@]1(Cc2ccc(O)c(CC3OC3(C)C)c2)OC(=O)C(O)=C1c1ccc(O)cc1 (stereo partly shown) [Compound 3, butyrolactone III]
- IC50 mean ± SD (cytotoxic effect) (RAW 264.7 cells): 246.8 ± 13.9 µg/mL (≈ 560 µM)
- IC50 at 24 h (MTT cell viability; [12]): 246 µg/mL
- IC50 at 24 h (MTT cell viability; [13]): 561 µM
- IC50 ([3]; tested 5–50 µg/mL, triplicates): 21.6 µM
- IC50 ([3]; value given in µM): 21.6 µM
- zone of inhibition at 10 µg/disc [4]: 0 mm
- zone of inhibition at 10 µg/disc [6]: 0 mm
- zone of inhibition at 10 µg/disc [7]: 0 mm
- zone of inhibition at 10 µg/disc [8]: 0 mm

— PMC10547674, “Bioactive metabolites identified from Aspergillus terreus derived from soil” (AMB Express, 2023)
